Legend:
Assay in all cases: relative viability (nuclei count vs DMSO), 5 days (fraction); higher = more cells survive
[1] = compound: CC1CC(=O)N(C2=CN=C(N=C2N1C3CCCC3)NC4=C(C=C(C=C4)C(=O)NC5CCN(CC5)C)OC)C [NPK76-II-72-1] + COc1cc2c(Oc3ccc(NC(=O)C4(C(=O)Nc5ccc(F)cc5)CC4)cc3F)ccnc2cc1OCCCN1CCOCC1 [Foretinib] (partner 0.25 µM)
Outline: (§1)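 Relative viability is defined as nuclei in treated wells over nuclei in vehicle wells. Duplicate plates were run and medians reported. Lung cancer cell lines in 1536-well plates were dosed by pin tool one day after seeding, with one drug or with a fixed anchor-drug dose plus five library-drug doses (not always all listed) in √10 steps, and nuclei were counted after 5 days.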

[2] = compound: CC1CC(=O)N(C2=CN=C(N=C2N1C3CCCC3)NC4=C(C=C(C=C4)C(=O)NC5CCN(CC5)C)OC)C [NPK76-II-72-1] + Nc1ncn([C@H]2C[C@H](O)[C@@H](CO)O2)c(=O)n1 [Decitabine] (partner 2 µM)
Outline: as §1

BI-2536 + Navitoclax = compound: CC[C@@H]1C(=O)N(C)c2cnc(Nc3ccc(C(=O)NC4CCN(C)CC4)cc3OC)nc2N1C1CCCC1 [BI-2536] + CC1(C)CCC(c2ccc(Cl)cc2)=C(CN2CCN(c3ccc(C(=O)NS(=O)(=O)c4ccc(N[C@H](CCN5CCOCC5)CSc5ccccc5)c(S(=O)(=O)C(F)(F)F)c4)cc3)CC2)C1 [Navitoclax] (partner 0.5 µM)
Outline: as §1

BI-2536 + Decitabine = compound: CC[C@@H]1C(=O)N(C)c2cnc(Nc3ccc(C(=O)NC4CCN(C)CC4)cc3OC)nc2N1C1CCCC1 [BI-2536] + Nc1ncn([C@H]2C[C@H](O)[C@@H](CO)O2)c(=O)n1 [Decitabine] (partner 2 µM)
Outline: as §1

Cell Line | relative viability ([1]; first compound 0.01 µM) | relative viability ([1]; first compound 0.03162 µM) | relative viability ([1]; first compound 0.1 µM) | relative viability ([1]; first compound 0.3162 µM) | relative viability ([1]; first compound 1 µM) | relative viability ([2]; first compound 0.01 µM) | relative viability ([2]; first compound 0.03162 µM) | relative viability ([2]; first compound 0.1 µM) | relative viability ([2]; first compound 0.3162 µM) | relative viability ([2]; first compound 1 µM) | relative viability (BI-2536 + Navitoclax; first compound 0.01 µM) | relative viability (BI-2536 + Navitoclax; first compound 0.03162 µM) | relative viability (BI-2536 + Navitoclax; first compound 0.1 µM) | relative viability (BI-2536 + Navitoclax; first compound 0.3162 µM) | relative viability (BI-2536 + Navitoclax; first compound 1 µM) | relative viability (BI-2536 + Decitabine; first compound 0.01 µM) | relative viability (BI-2536 + Decitabine; first compound 0.03162 µM) | relative viability (BI-2536 + Decitabine; first compound 0.1 µM) | relative viability (BI-2536 + Decitabine; first compound 0.3162 µM) | relative viability (BI-2536 + Decitabine; first compound 1 µM)
BEN | 0.676 | 0.526 | 0.748 | 0.657 | 0.635 | 0.661 | 0.713 | 0.671 | 0.743 | 0.76 | 0.0623 | 0.0739 | 0.0643 | 0.0627 | 0.0546 | 0.699 | 0.72 | 0.429 | 0.366 | 0.421
ChaGo-K-1 | 0.923 | 0.91 | 0.994 | 0.92 | 0.882 | 0.487 | 0.52 | 0.475 | 0.512 | 0.501 | 0.939 | 0.691 | 0.461 | 0.311 | 0.346 | 0.524 | 0.402 | 0.403 | 0.184 | 0.206
LK-2 | 1.15 | 1.26 | 1.09 | 1.09 | 1.13 | 0.379 | 0.246 | 0.265 | 0.201 | 0.407 | 0.798 | 0.553 | 0.387 | 0.118 | 0.172 | 0.255 | 0.254 | 0.134 | 0.0869 | 0.137
NCI-H322M | 1.06 | 1.09 | 0.976 | 0.923 | 0.978 | 0.675 | 0.711 | 0.714 | 0.743 | 0.77 | 1.3 | 1.29 | 1.2 | 0.608 | 0.333 | 0.69 | 0.64 | 0.649 | 0.462 | 0.451
NCI-H520 | 0.648 | 0.854 | 0.674 | 0.867 | 0.794 | 0.455 | 0.575 | 0.589 | 0.496 | 0.586 | 1.02 | 1.03 | 0.366 | 0.222 | 0.2 | 0.538 | 0.393 | 0.226 | 0.195 | 0.209
NCI-H1666 | 0.909 | 1.04 | 0.855 | 0.918 | 1.06 | 0.809 | 0.755 | 0.705 | 0.713 | 0.733 | 1.13 | 0.905 | 0.702 | 0.262 | 0.214 | 0.716 | 0.68 | 0.625 | 0.411 | 0.378
NCI-H1993 | 0.801 | 0.791 | 0.868 | 0.604 | 0.808 | 0.604 | 0.624 | 0.61 | 0.474 | 0.678 | 0.984 | 0.926 | 0.492 | 0.553 | 0.549 | 0.61 | 0.601 | 0.436 | 0.42 | 0.405
NCI-H1975 | 1.01 | 0.981 | 0.826 | 0.929 | 0.943 | 0.351 | 0.375 | 0.398 | 0.364 | 0.391 | 1.12 | 1.08 | 0.932 | 0.182 | 0.17 | 0.321 | 0.372 | 0.276 | 0.172 | 0.14
